Measurements as given in ChEMBL document CHEMBL3091423, “Synthesis, antioxidant capacity, and structure-activity relationships of tri-O-methylnorbergenin analogues on tyrosinase inhibition” (Bioorg Med Chem Lett, 2013).

How the values were obtained:
[1] = target: T1, Tyrosinase (Agaricus bisporus, UniProt O42713)
T1 sequence (O42713 whole entry): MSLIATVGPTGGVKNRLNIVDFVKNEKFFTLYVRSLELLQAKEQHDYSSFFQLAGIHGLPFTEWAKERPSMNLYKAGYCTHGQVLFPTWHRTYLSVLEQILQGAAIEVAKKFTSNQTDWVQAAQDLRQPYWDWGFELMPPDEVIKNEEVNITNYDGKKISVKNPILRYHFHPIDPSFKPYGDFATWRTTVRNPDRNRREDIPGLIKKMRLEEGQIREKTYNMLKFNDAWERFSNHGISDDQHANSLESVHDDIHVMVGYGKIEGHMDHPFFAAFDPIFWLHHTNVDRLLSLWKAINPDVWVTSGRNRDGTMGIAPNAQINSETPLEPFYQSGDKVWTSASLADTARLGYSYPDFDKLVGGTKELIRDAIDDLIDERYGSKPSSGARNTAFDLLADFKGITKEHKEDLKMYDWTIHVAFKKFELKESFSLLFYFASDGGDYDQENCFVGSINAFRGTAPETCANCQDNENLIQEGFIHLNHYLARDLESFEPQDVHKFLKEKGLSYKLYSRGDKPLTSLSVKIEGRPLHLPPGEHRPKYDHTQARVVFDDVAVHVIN
Description: (§1) Inhibition of mushroom tyrosinase using L-tyrosine as substrate preincubated for 10 mins followed by enzyme addition measured after 20 mins by microplate reader analysis

[2] = target: T1, Tyrosinase; experiment: Inhibition of mushroom tyrosinase using L-tyrosine as substrate by Dixon plot analysis
[3] = target: T1, Tyrosinase; experiment: Mixed inhibition of mushroom tyrosinase using L-tyrosine as substrate by Dixon/Cornish-Bowden plot analysis
[4] = target: T2, Tyrosinase (Agaricus bisporus) (UniProt O42713)
T2 sequence (whole entry): T1 sequence (O42713 whole entry)
Description: as §1

[5] = target: T1, Tyrosinase; experiment: Uncompetitive inhibition of mushroom tyrosinase using L-tyrosine as substrate by Dixon/Cornish-Bowden plot analysis

Compound | IC50 [1] [µM] | further results
COc1cc(C(=O)O)cc(OC)c1O [SYRINGIC ACID] | > 100 | –
COc1c(O)cc2c(c1O)[C@@H]1O[C@H](CO)[C@@H](O)[C@H](O)[C@H]1OC2=O [BERGENIN] | > 100 | –
COc1c(O)cc2c(c1O)[C@@H]1O[C@H](COC(=O)c3ccc(O)c(O)c3)[C@@H](O)[C@H](O)[C@H]1OC2=O | 17.5 | –
O=C(O)c1ccc(O)c(O)c1 [PROTOCATECHUIC ACID] | > 100 | –
COc1ccc(C(=O)O)cc1 [p-ANISIC ACID] | > 100 | –
COc1ccc(C(=O)O)cc1O [ISOVANILLIC ACID] | > 100 | –
COc1cc2c(c(OC)c1OC)[C@H]1O[C@@H](CO)[C@H](O)[C@@H](O)[C@@H]1OC2=O | > 100 | –
O=C(O)c1ccccc1 [BENZOIC ACID] | > 100 | –
O=C(O)c1ccc(O)cc1 [PARABEN] | > 100 | –
COc1cc(OC)cc(C(=O)O)c1 [3,5-DIMETHOXYBENZOIC ACID] | > 100 | –
COc1ccc(C(=O)O)cc1OC [VERATRIC ACID] | > 100 | –
COc1cc(OC)cc(C(=O)OC[C@H]2O[C@H]3c4c(cc(OC)c(OC)c4OC)C(=O)O[C@@H]3[C@@H](O)[C@@H]2O)c1 | > 100 | –
COc1cc2c(c(OC)c1OC)[C@@H]1O[C@H](COC(=O)c3ccccc3)[C@@H](O)[C@H](O)[C@H]1OC2=O | > 100 | –

Continued, in another order:

IC50 [1] [µM] | Compound | further results
> 100 | COc1cc(C(=O)OC[C@H]2O[C@H]3c4c(cc(OC)c(OC)c4OC)C(=O)O[C@@H]3[C@@H](O)[C@@H]2O)ccc1O | –
9.1 | COc1cc2c(c(OC)c1OC)[C@@H]1O[C@H](COC(=O)c3ccc(O)c(O)c3)[C@@H](O)[C@H](O)[C@H]1OC2=O | Ki [2]: 4.5 µM; Ki [3]: 7.3 µM; inhibition [4]: Dose-dependent effect
38.8 | COc1ccc(C(=O)OC[C@H]2O[C@H]3c4c(cc(OC)c(OC)c4OC)C(=O)O[C@@H]3[C@@H](O)[C@@H]2O)cc1O | Ki [5]: 107 µM; inhibition [4]: Dose-dependent effect
31.5 | COc1cc2c(c(OC)c1OC)[C@@H]1O[C@H](COC(=O)c3ccc(O)cc3)[C@@H](O)[C@H](O)[C@H]1OC2=O | Ki [2]: 74.8 µM; Ki [3]: 121 µM; inhibition [4]: Dose-dependent effect
> 100 | COc1ccc(C(=O)OC[C@H]2O[C@H]3c4c(cc(OC)c(OC)c4OC)C(=O)O[C@@H]3[C@@H](O)[C@@H]2O)cc1 | –
> 100 | COc1cc(C(=O)OC[C@H]2O[C@H]3c4c(cc(OC)c(OC)c4OC)C(=O)O[C@@H]3[C@@H](O)[C@@H]2O)cc(OC)c1O | –
> 100 | COc1ccc(C(=O)OC[C@H]2O[C@H]3c4c(cc(OC)c(OC)c4OC)C(=O)O[C@@H]3[C@@H](O)[C@@H]2O)cc1OC | –
